In US11203586B2, “Iridinesulfonamide compound and use method thereof” (Chia Tai Tianqing Pharmaceutical Group Co., Ltd., priority 2016, dated 2021) one finds IC50 data, which are given here for 25 compounds.

IDH1 (R132H), sequence (O75874 whole entry R132H): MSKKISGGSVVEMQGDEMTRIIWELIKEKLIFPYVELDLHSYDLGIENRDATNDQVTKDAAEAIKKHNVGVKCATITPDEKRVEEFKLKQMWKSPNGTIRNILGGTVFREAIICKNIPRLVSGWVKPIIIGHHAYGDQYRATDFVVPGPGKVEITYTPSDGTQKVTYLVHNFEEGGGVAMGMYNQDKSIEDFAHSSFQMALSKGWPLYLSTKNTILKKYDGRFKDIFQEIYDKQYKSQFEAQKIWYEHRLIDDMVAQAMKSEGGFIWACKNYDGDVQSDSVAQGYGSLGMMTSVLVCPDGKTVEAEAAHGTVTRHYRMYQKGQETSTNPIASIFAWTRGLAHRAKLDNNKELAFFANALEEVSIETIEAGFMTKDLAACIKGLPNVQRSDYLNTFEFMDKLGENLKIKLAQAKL

This assay concerns the target IDH1 (R132H) (Homo sapiens (Human), UniProt O75874, R132H). Description: Enzyme assay, NADPH decrease detected with Diaphorase/Resazurin. The format is biochemical. To be noted: 40 nM enzyme, 20 μM NADPH, incubated at 23° C. for 16 hours before α-KG; 12 concentrations. The text has this:
Resazurin is a traditional redox dye, and after a redox reaction, it can be reduced from a blue resazurin without fluorescence to a pink fluorescent substance, resorufin, which can be measured and quantified with relative fluorescence unit (RFU) of fluorophotometer (Ex=530-570 nm, Em=590-620 nm). At present, resazurin is widely used for determining the viability of bacteria, cells, etc. and the enzyme activity detection of oxidoreductase. We detected the decrease of cofactor NADPH to determine the inhibitory activity of a compound against IDHm and detected the generation of cofactor NADPH to determine the inhibitory activity of a compound against IDH WT.
The compound was pre-incubated with IDHm and NADPH, and then the reaction was initiated by adding α-KG and performed for certain time under a linear condition.
Then, Diaphorase (lipoamide dehydrogenase) and the corresponding substrate Resazurin were added thereto for detection. Lipoamide dehydrogenase terminated the IDH2m reaction by decreasing the available cofactor NADPH, which oxidized NADPH to NADP, and reduced resazurin to high fluorescent resorufin. The amount of the remaining cofactor NADPH after a specific reaction time was quantified via an easily detectable fluorophore.
The specific operation was as follows: 2.5 μl of the compound diluted in a 3-fold gradient was added to a 384-well plate, followed by adding 5 μL of the reaction buffer (20 mM Tris-HCl, pH 7.5; 150 mM NaCl; 10 mM MgCl2; 0.4 mg/mL BSA (Bovine Serum Albumin) and 2 mM DTT (dithiothreitol)) containing 40 nM IDH1 (R132H/R132C) and 20 μM NADPH. Then, the above test mixture was incubated at 23° C. for 16 hours, and then 2.5 μL of the reaction buffer containing 4 mM α-KG was added to initiate the reaction. After they were incubated for 60 minutes at room temperature, 5 μL of the termination mixture (0.4 U/ml Diaphorase and 20 μM Resazurin) formulated with the reaction buffer was added to convert resazurin to resorufin, so as to measure the amount of the remaining NADPH. After incubating at 23° C. for 10 minutes, fluorescence values were determined through Flexstation 3 at Ex535/Em595. The enzyme activity of each compound was respectively determined at 12 concentrations, and the data were calculated using the software GraFit6.0 (Erithacus Software) to obtain the IC50 value of each compound.
A general note: Resazurin is reduced to fluorescent resorufin, in cell work by metabolically active cells.
In general, IC50 refers to the midpoint of a concentration-inhibition curve. Low values mean higher potency, high ones lower potency. For the compound `CC(C)[C@@H]1CN1S(=O)(=O)NCC(=O)N(c1cccc(F)c1)C(C(=O)NC1CCCCC1)c1ccccc1Cl` (stereo in doubt) [Example 9, 2-(2-chlorophenyl)-N-cyclohexyl-2-(N-(3-fluorophenyl)-2-((R)-2-isopropylaziridine-1-sulfonylamino)acetamido)acetamide], the IC50 was less than 100 nM.

In turn, `O=C(NC1CCCCC1)C(c1ccccc1Cl)N(C(=O)CNS(=O)(=O)N1CC1)c1cccc(F)c1` (stereo not shown) [Example 1, 2-(aziridinyl-1-sulfonylamino)-N-(1-(2-chlorophenyl)-2-(cyclohexylamino)-2-oxoethyl)-N-(3-fluorophenyl)acetamide] had an IC50 of less than 20 nM.

The compound `C[C@H](NS(=O)(=O)N1CC1)C(=O)N(c1cccc(F)c1)C(C(=O)NC1CCCCC1)c1ccccc1Cl` (stereo partly shown) [Example 2, (2)-2-(aziridine-1-sulfonylamino)-N-(1-(2-chlorophenyl)-2-(cyclohexylamino)-2-oxoethyl)-N-(3-fluorophenyl)propanamide] registered an IC50 of less than 500 nM.

As for `C[C@@H](NS(=O)(=O)N1CC1)C(=O)N(c1cccc(F)c1)[C@@H](C(=O)NC1CCCCC1)c1ccccc1Cl` [Example 3, (R)-2-(aziridine-1-sulfonylamino)-N—((R)-(2-chlorophenyl)-2-(cyclohexylamino)-2-oxoethyl)-N-(3-fluorophenyl)propanamide], the IC50 was less than 10000 nM.

With `C[C@@H](NS(=O)(=O)N1CC1)C(=O)N(c1cccc(F)c1)[C@H](C(=O)NC1CCCCC1)c1ccccc1Cl` [Example 4, (R)-2-(aziridine-1-sulfonylamino)-N—((S)-1-(2-chlorophenyl)-2-(cyclohexylamino)-2-oxoethyl)-N-(3-fluorophenyl)propanamide], the IC50 is less than 100 nM.

The compound `O=C(NC1CCCCC1)C(c1ccccc1Cl)N(C(=O)CCNS(=O)(=O)N1CC1)c1cccc(F)c1` (stereo not shown) [Example 5, 3-(aziridine-1-sulfonylamino)-N-(1-(2-chlorophenyl)-2-(cyclohexylamino)-2-oxoethyl)-N-(3-fluorophenyl)propanamide] had an IC50 of less than 20 nM.

The compound `O=C(NC1CCCCC1)C(c1ccccc1Cl)N(C(=O)CCS(=O)(=O)N1CC1)c1cccc(F)c1` (stereo not shown) [Example 6, 3-(aziridin-1-ylsulfonyl)-N-(1-(2-chlorophenyl)-2-(cyclohexylamino)-2-oxoethyl)-N-(3-fluorophenyl)propanamide] yielded a half-inhibitory concentration (IC50) of less than 20 nM.

For the compound `CC(C)[C@@H]1CN1S(=O)(=O)N(CC(=O)N(c1cccc(F)c1)C(C(=O)NC1CCCCC1)c1ccccc1Cl)C(=O)OC(C)(C)C` (stereo partly shown) [Example 7], the IC50 was less than 10000 nM.

As to `O=C(NC1CC(F)(F)C1)C(c1ccccc1Cl)N(C(=O)CCNS(=O)(=O)N1CC1)c1cccc(F)c1` (stereo not shown) [Example 8, 3-(aziridine-1-sulfonylamino)-N-(1-(2-chlorophenyl)-2-((3,3-difluorocyclobutyl)amino)-2-oxoethyl)-N-(3-fluorophenyl)propanamide], the half-inhibitory concentration (IC50) was less than 20 nM.

Regarding `O=C(NC1CC(F)(F)C1)C(c1ccccc1Cl)N(C(=O)CNS(=O)(=O)N1CC1)c1cncc(F)c1` (stereo not shown) [Example 11, 2-(aziridine-1-sulfonylamino)-N-(1-(2-chlorophenyl)-2-((3,3-difluorocyclobutyl)amino)-2-oxoethyl)-N-(5-fluoropyridin-3-yl)acetamide], the IC50 was less than 100 nM.

`CN(CC(=O)N(c1cccc(F)c1)C(C(=O)NC1CCCCC1)c1ccccc1Cl)S(=O)(=O)N1CC1` (stereo not shown) [Example 12, 2-(2-chlorophenyl)-N-cyclohexyl-2-(N-(3-fluorophenyl)-2-(N-methylaziridine-1-sulfonylamino)acetamido)acetamide] displayed an IC50 of less than 20 nM.

The compound `O=C(NC1CC(F)(F)C1)C(c1ccccc1Cl)N(C(=O)CCCNS(=O)(=O)N1CC1)c1cccc(F)c1` (stereo not shown) [Example 13, 4-(aziridine-1-sulfonylamino)-N-(1-(2-chlorophenyl)-2-((3,3-difluorocyclobutyl)amino)-2-oxoethyl)-N-(3-fluorophenyl)butanamide] returned an IC50 of less than 20 nM.

The compound `O=C(NC1CC(F)(F)C1)C(c1ccccc1Cl)N(C(=O)CCS(=O)(=O)N1CC1)c1cccc(F)c1` (stereo not shown) [Example 14, 3-(aziridin-1-ylsulfonyl)-N-(1-(2-chlorophenyl)-2-((3,3-difluorocyclobutyl)amino)-2-oxoethyl)-N-(3-fluorophenyl)propanamide] showed an IC50 of less than 20 nM.

Consider `O=C(NC1CCCCC1)C(c1ccccc1Cl)N(C(=O)CS(=O)(=O)N1CC1)c1cccc(F)c1` (stereo not shown) [Example 15, 2-(aziridin-1-ylsulfonyl)-N-(1-(2-chlorophenyl)-2-(cyclohexylamino)-2-oxoethyl)-N-(3-fluorophenyl)acetamide], for which the IC50 is less than 20 nM.

On to `O=C(NC1CCCCC1)C(c1ccccc1Cl)N(C(=O)CNS(=O)(=O)N1CC1)c1cc(F)cc(F)c1` (stereo not shown) [Example 16, 2-(aziridine-1-sulfonylamino)-N-(1-(2-chlorophenyl)-2-(cyclohexylamino)-2-oxoethyl)-N-(3,5-difluorophenyl)acetamide], for which the IC50 was less than 20 nM.

With `O=C(NC1CCCCC1)C(c1ccccc1Cl)N(C(=O)CNS(=O)(=O)N1CC1)c1cncc(F)c1` (stereo not shown) [Example 17, 2-(aziridine-1-sulfonylamino)-N-(1-(2-chlorophenyl)-2-(cyclohexylamino)-2-oxoethyl)-N-(5-fluoropyridin-3-yl)acetamide], the IC50 is less than 20 nM.

In turn, `O=C(NC1CCCCC1)[C@@H](c1ccccc1Cl)N(C(=O)[C@@H]1CCCN1S(=O)(=O)N1CC1)c1cccc(F)c1` [Example 18, (S)-1-(aziridin-1-ylsulfonyl)-N—((R)-1-(2-chlorophenyl)-2-(cyclohexylamino)-2-oxoethyl)-N-(3-fluorophenyl)pyrrolidine-2-carboxamide] returned an IC50 of less than 10000 nM.

`O=C(NC1CCCCC1)[C@H](c1ccccc1Cl)N(C(=O)[C@@H]1CCCN1S(=O)(=O)N1CC1)c1cccc(F)c1` [Example 19, (S)-1-(aziridin-1-ylsulfonyl)-N—((S)-1-(2-chlorophenyl)-2-(cyclohexylamino)-2-oxoethyl)-N-(3-fluorophenyl)pyrrolidine-2-carboxamide] showed an IC50 of less than 100 nM.

`O=C(NC1CCCCC1)C(c1ccccc1Cl)N(C(=O)CCCCS(=O)(=O)N1CC1)c1cccc(F)c1` (stereo not shown) [Example 20, 5-(aziridin-1-ylsulfonyl)-N-(1-(2-chlorophenyl)-2-(cyclohexylamino)-2-oxoethyl)-N-(3-fluorophenyl)pentanamide] displayed a concentration for half-maximal inhibition (IC50) of less than 20 nM.

`O=C(NC1CCCCC1)C(c1ccccc1Cl)N(C(=O)CCCS(=O)(=O)N1CC1)c1cccc(F)c1` (stereo not shown) [Example 21, 4-(aziridin-1-ylsulfonyl)-N-(1-(2-chlorophenyl)-2-(cyclohexylamino)-2-oxoethyl)-N-(3-fluorophenyl)butanamide] had a half-maximal inhibitory concentration (IC50) of less than 20 nM.

Compound `O=C(NC1CCCCC1)C(c1ccccc1Cl)N(C(=O)C1CC(NS(=O)(=O)N2CC2)C1)c1cccc(F)c1` (stereo not shown) [Example 22, 3-(aziridine-1-sulfonylamino)-N-(1-(2-chlorophenyl)-2-cyclohexylamino-2-oxoethyl)-N-(3-fluorophenyl)cyclobutyl carboxamide] registered an IC50 of less than 20 nM.

`O=C(NC1CC(F)(F)C1)C(c1ccccc1Cl)N(C(=O)CNS(=O)(=O)N1CC1)c1cccc(C(F)(F)F)c1` (stereo not shown) [Example 23, 2-(aziridine-1-sulfonylamino)-N-(1-(2-chlorophenyl)-2-((3,3-difluorocyclobutyl)amino)-2-oxoethyl)-N-(3-trifluoromethylphenyl)acetamide]: the IC50 is less than 100 nM.

With `O=C(NC1CCCCC1)C(c1ccccc1Cl)N(C(=O)C1CN(S(=O)(=O)N2CC2)C1)c1cccc(F)c1` (stereo not shown) [Example 24, 1-(aziridin-1-ylsulfonyl)-N-(1-(2-chlorophenyl)-2-cyclohexylamino-2-oxoethyl)-N-(3-fluorophenyl)azetidine-3-carboxamide], the 50% inhibitory concentration (IC50) is less than 20 nM.

Consider `O=C(NC1CC(F)(F)C1)[C@@H](c1ccccc1Cl)N(C(=O)CNS(=O)(=O)N1CC1)c1cccc(F)c1` [Example 26, (R)-2-(aziridine-1-sulfonylamino)-N-(1-(2-chlorophenyl)-2-((3,3-difluorocyclobutyl)amino)-2-oxoethyl)-N-(3-fluorophenyl)acetamide], for which the concentration for half-maximal inhibition (IC50) is less than 100 nM.

Compound `O=C(NC1CCCCC1)C(c1ccccc1Cl)N(C(=O)C1CCN(S(=O)(=O)N2CC2)C1)c1cccc(F)c1` (stereo not shown) [Example 27, 1-(aziridin-1-ylsulfonyl)-N-(1-(2-chlorophenyl)-2-cyclohexylamino-2-oxoethyl)-N-(3-fluorophenyl)pyrrolidine-3-carboxamide] had an IC50 of less than 20 nM.
